Measured values taken from publication PMC12048343, “Discovery of a small molecule secreted clusterin enhancer that improves memory in Alzheimer’s disease mice” (npj Drug Discovery, 2025).

Tests used:
U-87 MG cells = experiment: Cytotoxicity, MultiTox-Fluor (CNS gliotoxicity); conditions: U-87 MG, up to 50 µM
From the text: Cell viability and toxicity were simultaneously assessed using the MultiTox-Fluor Multiplex Cytotoxicity Assay (Cat# PRG9200, Fisher Scientific) according to the manufacturer’s protocol.

HEK 293 T cells = experiment: Cytotoxicity, MultiTox-Fluor (nephrotoxicity); format: cell-based; conditions: up to 50 µM
HEPG2 cells = experiment: Cytotoxicity, MultiTox-Fluor (hepatotoxicity); format: cell-based; conditions: HEPG2, up to 50 µM
[1] = system: 3xTg-AD murine model of AD; experiment: Chronic 6-week oral study in 3xTg-AD mice (hippocampus biomarkers, proteomics); format: in vivo, mouse; conditions: oral 15 mg/kg BID, 6 weeks, vs vehicle
Experimental: Brain tissue was homogenized and diluted to a protein concentration of 50 ng/mL. The Mouse Clusterin ELISA Kit (Cat#ab199079, Abcam) was performed according to the manufacturer’s protocol.
Hippocampal tissue was sonicated in TPER buffer containing 1x protease and phosphatase inhibitors (Fisher catalog # 78429) on ice. Samples were centrifuged at 16000xg for 10 min at 4 degrees C. A BCA protein quantification assay was performed on each sample in duplicate. Aliquots of 40 uL were stored in the -80 freezer.
A sample of brain homogenate (8.8 mg/mL) was tested at 10 dilutions using the Tau AlphaLISA (Revvity Cat#AL271C) (32, 64, 128, 256, 512, 1024, 2048, 4096, 8192, 16384-fold) and, separately, the anti-tau phosphor AT8 and S396 (Fisher catalogs MN1020B and 44-752 G, respectively) antibodies (2, 4, 8, 16, 32, 64, 128, 256, 512, 1024-fold). AlphaLISA assays were by loading 2 µL of the anti-tau acceptor bead mixed with anti-tau or anti-ptau biotinylate antibodies in the 384-well plate, then 2 uL sample was loaded and incubated for 1 h at room temperature. AlphaScreen Streptavidin Donor beads (2 µL, Cat#6760002S, Perkin Elmer) were added, incubated for an additional 30 minutes in the dark, and the plate was read in an Envision plate reader.
(§1) Additional assays: The Aβ1-42 ELISA assay was performed on hippocampus brain homogenate according to the manufacturer’s protocol (Fisher KHB3441). Humanin in cell culture lysate was quantify by ELISA assay, according to the manufacturer’s protocol (MyBioSourc Cat# MBS7607247). SirT1 in cell culture lysate was quantify using AlphaLISA. Cell lysate (2 μL) was added to a 384-well proxy plate preloaded with 2 µL anti-SiRT1 antibody mixture (ABCAM catalog AB110304, biotinylated (10 nM) and ABCAM catalog AB104833, acceptor bead conjugated (50 µg/mL, Cat#6772001, Perkin Elmer)) was added and incubated at room temperature for 1 hour. AlphaScreen Streptavidin Donor beads (2 µL, Cat#6760002S, Perkin Elmer) were added, incubated for an additional 30 min in the dark, and the plate was read in an Envision plate reader.
All procedures were performed in accordance with protocols approved by the UCLA Institutional Animal Care and Use Committee (IACUC) and guidelines of the NIH. Mouse strains used were C57BL/6 J (Black 6, Jackson Laboratory; JAX stock #000564). All non-AD mice were 4 to 5 mo old at the time of the experiments. […]

[2] = system: humanin (HN) expression in SH-SY5Y cells; experiment: Humanin ELISA in SH-SY5Y cell lysate; format: cell-based, human; conditions: 200 nM, 24 h
Experimental: as §1

[3] = system: human iPSC-derived neurons; experiment: Neurite outgrowth assay in iPSC-derived human neurons; format: cell-based; conditions: 48 h
Experimental: The iPSC derived human neurons were provided by the Kornblum lab to be cultured in normal growth conditions (37 °C, 5% CO2) for 2–3 days. Cells were cultured in CELLSTAR uClear 384 well plates, PS, F bottom at seeding density of 5000 cells per well coated overnight with 30 ug/mL poly-D-lysine and 2 ug/mL laminin. Media was replaced every 3 days with Lonza Primary Neuron Basal Medium (PNBM) supplemented with 2 mM L-glutamine, GA-1000, and 2% NSF-1. On day 3, cells were treated with DDL357 in doses ranging from 15,000 nM to 0.76 nM for 48 h. All compounds were diluted in 0.5% DMSO and pinned to 384 well plates with 25 µL of cell media per well with pin size of 250 nL using BioMek FX (Beckman Coulter, CA). After 48 h, media was replaced twice to ensure removal of any remaining compound residues before imaging for neurite outgrowth with Calcein-AM and Hoescht. Imaging was done at UCLA Molecular Screening Shared Resource core facility (MSSR; Robert Damoiseaux, Ph.D., Director) with ImageXPress Confocal (Molecular Devices, CA) using a 10x objective. Total neurite outgrowth was measured via a MetaXpress (Molecular Devices, CA) neurite outgrowth analysis algorithm. […] Mean neurite outgrowth per drug exposure was determined by normalizing to vehicle control (n = 60). […]

hERG potassium channel = hERG potassium channel (Homo sapiens, UniProt Q12809); experiment: hERG potassium channel inhibition assay
Chain of hERG potassium channel (Q12809 whole entry): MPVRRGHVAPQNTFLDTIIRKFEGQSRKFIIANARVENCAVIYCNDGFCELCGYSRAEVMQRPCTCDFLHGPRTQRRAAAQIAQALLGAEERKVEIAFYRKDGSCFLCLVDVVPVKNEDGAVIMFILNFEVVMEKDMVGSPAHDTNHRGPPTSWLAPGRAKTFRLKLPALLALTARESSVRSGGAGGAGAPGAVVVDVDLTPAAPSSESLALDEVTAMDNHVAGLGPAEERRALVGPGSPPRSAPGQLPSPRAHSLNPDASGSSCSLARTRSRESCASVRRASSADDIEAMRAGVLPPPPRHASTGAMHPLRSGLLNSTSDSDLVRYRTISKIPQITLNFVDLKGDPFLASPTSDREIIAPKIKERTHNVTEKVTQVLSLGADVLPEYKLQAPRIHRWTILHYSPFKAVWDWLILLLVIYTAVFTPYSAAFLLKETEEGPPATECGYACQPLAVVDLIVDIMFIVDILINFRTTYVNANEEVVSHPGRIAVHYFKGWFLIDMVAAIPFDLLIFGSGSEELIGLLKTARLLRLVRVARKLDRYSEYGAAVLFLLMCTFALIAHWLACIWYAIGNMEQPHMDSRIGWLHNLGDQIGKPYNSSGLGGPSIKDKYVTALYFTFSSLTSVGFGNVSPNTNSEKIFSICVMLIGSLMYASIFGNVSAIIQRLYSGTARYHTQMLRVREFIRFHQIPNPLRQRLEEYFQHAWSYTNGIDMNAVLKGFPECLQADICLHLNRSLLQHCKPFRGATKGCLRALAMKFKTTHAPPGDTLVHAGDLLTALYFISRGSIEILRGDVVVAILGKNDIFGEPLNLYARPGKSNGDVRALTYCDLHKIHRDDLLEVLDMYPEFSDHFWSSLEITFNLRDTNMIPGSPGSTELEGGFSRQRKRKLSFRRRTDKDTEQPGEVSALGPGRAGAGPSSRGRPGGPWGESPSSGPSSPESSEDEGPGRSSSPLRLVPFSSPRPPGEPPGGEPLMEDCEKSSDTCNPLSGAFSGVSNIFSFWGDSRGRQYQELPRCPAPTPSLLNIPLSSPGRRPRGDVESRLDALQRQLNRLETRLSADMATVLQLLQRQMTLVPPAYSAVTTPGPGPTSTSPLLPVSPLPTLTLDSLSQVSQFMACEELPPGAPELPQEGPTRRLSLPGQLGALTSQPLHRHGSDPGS

In the case of Cc1sc2c(c1C)C(c1ccc(Cl)cc1)=N[C@@H](CC(=O)OC1CC1)c1nnc(C)n1-2 [DDL-357], the Ctox (U-87 MG cells) is reported as at least 50 µM, the Ctox (HEK 293 T cells) is reported as at least 50 µM and the Ctox (HEPG2 cells) is reported as at least 50 µM. The “reduction of tau phosphorylation at Ser396 (p-tau/total tau)” value ([1]; hippocampus) was “significant”, the “tau phosphorylation at Ser202/Thr205 (p-tau/total tau)” value ([1]; hippocampus) was “lower, but not significantly so” and the “Aβ1-42 levels in brain” value [1] was “the differences were not significant”. For the same compound, the “sCLU levels in brain” value [1] was “the differences were not significant”, the “humanin (HN) expression” value [2] was “significantly increased expression” and the “concentrations associated with significantly increased neurite outgrowth” value [3] was 0.8 to 61.7 nM. The EC50 (hERG potassium channel) was over 100 µM.
